Assay results taken from PMC10206040, “Identification of novel anti-amoebic pharmacophores from kinase inhibitor chemotypes” (Frontiers in Microbiology, 2023).
Like-named read-outs stand apart in the source and are kept apart here.

How the values were obtained:
[1] = tested on: Balamuthia mandrillaris (CDC:V039; ATCC 50209) trophozoites; assay: CellTiter-Glo 2.0 trophocidal assay, B. mandrillaris; format: cell-based; details: Balamuthia mandrillaris, ATCC50209, 72 h
Text: For sub-culturing, 0.25% Trypsin–EDTA (Gibco) cell detachment reagent was used to detach the cells from the culture flasks.

[2] = tested on: Naegleria fowleri (ATCC 30215) trophozoites; assay: microbe, parasite or virus in culture
Description: Trophozoites were routinely grown axenically at 34°C, 5% CO2, in Nelson’s complete medium (NCM) in non-vented 75 cm^2 tissue culture flasks (Olympus), until the cells were 80–90% confluent. For sub-culturing, cells were placed on ice to detach the cells from the culture flasks. […] Complete NCM media is prepared by the addition of 10% fetal bovine serum (FBS) and 100 U/mL penicillin, and 100 μg/mL streptomycin antibiotics.
Trophozoites were routinely cultured as described above and only logarithmic trophozoites were used.
All assays were incubated at each of the parasites’ representative growth temperatures, described above, for 72 h. At the 72-h time point, 25 μL of CellTiter-Glo 2.0 reagent was added to all wells of the 96-well plates by hand. The plates were protected from light and contents were mixed using an orbital shaker at 300 rpm at room temperature for 2 min to induce cell lysis. After shaking, the plates were equilibrated at room temperature for 10 min to stabilize the luminescent signal. The ATP luminescent signal (relative light units; RLUs) were measured […] with a SpectraMax I3X plate reader (Molecular Devices, Sunnyvale, CA, United States). […] Values reported are from a minimum of three biological replicates with standard deviation.

[3] = tested on: Acanthamoeba castellanii T4 isolate (ATCC 50370) trophozoites; assay: CellTiter-Glo 2.0 trophocidal assay, A. castellanii; format: cell-based; details: Acanthamoeba castellanii, ATCC50370, 72 h, logarithmic trophozoites, 72 h, n = 3; read-out: Acanthamoeba castellanii EC50 ± SD
Text: This isolate was purchased from American Type Culture Collection (ATCC). […] For sub-culturing, cells were mechanically harvested to detach the cells from the culture flasks.

[4] = logarithmic trophozoites, 72 h, n = 3, read-out: Balamuthia mandrillaris EC50 ± SD
[5] = Naegleria fowleri, ATCC30215, 72 h, read-out: Naegleria fowleri EC50 ± SD, logarithmic trophozoites, 72 h, n = 3 (converted)
[6] = read-out: Balamuthia mandrillaris EC50 ± SD, logarithmic trophozoites, 72 h, n = 3 (converted)
[7] = Naegleria fowleri, 72 h, read-out: Naegleria fowleri EC50 ± SD, logarithmic trophozoites, 72 h, n = 3 (converted)

| SMILES | EC50 [2, 5] [µM] | EC50 [1, 6] [µM] | other results |
| --- | --- | --- | --- |
| CC[C@H]1OC(=O)[C@H](C)[C@@H](O[C@H]2C[C@@](C)(OC)[C@@H](O)[C@H](C)O2)[C@H](C)[C@@H](O[C@@H]2O[C@H](C)C[C@H](N(C)C)[C@H]2O)[C@](C)(O)C[C@@H](C)CN(C)[C@H](C)[C@@H](O)[C@]1(C)O [Azithromycin, reference compound] | 0.02 ± 0.01 |  | EC50 [1, 4]: > 20 µM; EC50 [3]: 0.26 ± 0.14 µM |
| [H]/N=C(\N/C(=N/[H])NCCCCCCNC(=N)NC(=N)Nc1ccc(Cl)cc1)Nc1ccc(Cl)cc1 [Chlorhexidine, reference compound] | 5.8 ± 0.22 |  | EC50 [1, 4]: 1.6 ± 0.17 µM; EC50 [3]: 11 ± 3.5 µM |
| Nc1cc(-c2cc3c4c(n[nH]c4c2)Nc2ccccc2O3)ncn1 [Compound 1b] |  |  | EC50 [1, 4]: 1.8 ± 0.46 µM; EC50 [3]: 12 ± 8.2 µM |
| Brc1ccc2nc(-c3ccccn3)c(Nc3ccc4c(c3)OCO4)n2c1 [Compound 3e] | > 20 |  | EC50 [3]: > 20 µM |
| Cn1cc(-c2cnc3[nH]cc(-c4cccnc4)c3c2)cn1 [Compound 4d] | ≤ 14 |  | EC50 ([2]; read-out: Naegleria fowleri EC50 ± SD, logarithmic trophozoites, 72 h, n = 3): 8.4 ± 0.71 µM |
| N#Cc1cccc(-c2c[nH]c3ncc(-c4ccncc4)cc23)c1 [Compound 4f] | > 20 |  |  |
| Cn1cc(-c2ccnc3[nH]c(-c4ccc(C5CCCN5)cc4)cc23)cn1 (centres unmarked) [Compound 5b] |  | 7.25 ± 0.7 |  |
| Cn1cc(-c2ccnc3[nH]c(-c4ccc(C(N)=O)cc4)cc23)cn1 [Compound 5e] |  | 1.8 ± 0.24 |  |
| FC(F)(F)CNc1nc(Nc2ccsc2)nc2[nH]cnc12 [Compound 6a] | 11 ± 0.6 |  |  |
| c1nc2c(N3CCC3)nc(Nc3ccsc3)nc2[nH]1 [Compound 6b] | 14 ± 5.7 |  |  |
| Cn1cc(Nc2nc(NCC(F)(F)F)c3ncn(C)c3n2)cn1 [Compound 6c] | > 20 |  |  |
| c1nc2c(NCCN3CCCC3)nc(Nc3ccsc3)nc2[nH]1 [Compound 6d] | > 20 |  |  |
| CN1CCN(c2ncc(-c3ccc4c(Nc5ccc(OCc6cccc(F)c6)c(Cl)c5)ccnc4c3)cn2)CC1 [Compound 7a] | 16 ± 4.1 |  | lipophilic ligand efficiency (LLE) ([2]; N. fowleri, LLE calculated as pEC50-LogD7.4): 1.40 |
| CN1CC2(CCN(c3ncc(-c4ccc5c(Nc6cnccn6)ccnc5c4)cn3)C2)C1 [Compound 7b] |  |  | EC50 [1, 4]: 1.4 ± 0.17 µM |
| CC(=O)c1ccc2c(c1)c1cc(C(C)=O)ccc1n2CCNC1CCCCC1 [Compound 8a] |  | 6.8 ± 0.1 |  |
| CC(=O)c1cc2c3cc(C(C)=O)c(O)cc3n(CCNC(C)C)c2cc1O [Compound 8b] | 8.8 ± 0.71 |  | EC50 [1, 4]: 11 ± 0.35 µM |
| CC(=O)c1ccc2c(c1)c1cc(C(C)=O)ccc1n2CCN1CCCCC1 [Compound 8d] |  | 12 ± 0.26 | EC50 [2, 7]: 4.3 ± 0.22 µM |
| CC(=O)c1cc2c3cc(C(C)=O)c(O)cc3n(CCCN(C)C)c2cc1O [Compound 8e] | 17 ± 0.65 |  |  |
| CC(=O)c1ccc2c(c1)c1cc(C(C)=O)ccc1n2CCCN(C)C [Compound 8f] | 17 ± 0.2 |  | EC50 [1, 4]: 19 ± 1.1 µM |
| CC(=O)c1ccc2c(c1)c1cc(C(C)=O)ccc1n2CCNC1CCCCCC1 [Compound 8h] |  | 7.3 ± 0.38 |  |
| CC(=O)c1ccc2c(c1)c1cc(C(C)=O)ccc1n2CCN1CC(C)C1 [Compound 8i] |  | 7.3 ± 0.28 | EC50 [2, 7]: 18 ± 0.45 µM |
| CC(=O)c1ccc2c(c1)c1cc(C(C)=O)ccc1n2CCN1CCCOCC1 [Compound 8j] |  | 3.3 ± 0.24 | EC50 [2, 7]: 10 ± 1.4 µM |
